{"source": "patent US20260240872A1", "about": "“COMBINATION OF METFORMIN AND GLIBENCLAMIDE IN THE TREATMENT OF PARKINSON'S DISEASE” (CXS THERAPEUTICS, priority 2023, published 2026)", "molecules": {"B1": {"name": "BDNF: Brain Derived Neurotrophic factor, used as reference compound (positive control) at 50 ng/ml (protein, UniProt P23560 19-247, looked up)", "Neurotrophic factor BDNF …": "APMKEANIRGQGGLAYPGVRTHGTLESVNGPKAGSRGLTSLADTFEHVIEELLDEDQKVRPNEENNKDADLYTSRVMLSSQVPLEPPLLFLLEEYKNYLDAANMSMRVRRHSDPARRGELSVCDSISEWVTAADKKTAVDMSGGTVTVLEKVPVSKGQLKQYFYETKCNPMGYTKEGCRGIDKRHWNSQCRTTQSYVRALTMDSKKRIGWRFIRIDTSCVCTLTIKRGR"}}, "assay_type_in_all_cases": "cell-based", "key": {"[1]": {"test_system": "rat primary dopaminergic neurons", "assay": "Example 2: 6-OHDA injury, protective protocol, total number of TH positive neurons (dopaminergic neurons survival)", "settings": "for cellular death (decrease of dopaminergic neurons survival): 48 hours; for cellular death / protection of dopaminergic neurons from cell death induced by 6-OHDA: one-hour pre-treatment; for cellular death: 6-OHDA 20 μM 48 hours, Plate 1, not significant; for protection of dopaminergic neurons from cell death induced by 6-OHDA: compound alone, 6-OHDA 48 hours, conclusion; for dopaminergic neurons survival: BDNF 50 ng/ml + 6-OHDA 20 μM 48 hours", "method": "(§1) The total number and the neurites length of dopaminergic neurons was assessed.\n(§2) Rat mesencephalic neurons were cultured as described by Schinelli et al., 1988. Briefly pregnant female rats of 15 days gestation were killed by cervical dislocation (Rats Wistar; Janvier Lab) and the fetuses removed from the uterus. The embryonic midbrains were removed and placed in ice-cold medium of Leibovitz 15 (L15; PanBiotech, Ref P04-27055, Batch: 1260323) containing 2% of Penicillin-Streptomycin (PS; PanBiotech, ref: P06-07100, Batch: 2585615) and 1% of bovine serum albumin (BSA; Sigma, Ref: 810533, Batch: 73). Only the ventral portions of the mesencephalic flexure were used for the cell preparation as this region of the developing brain is enriched in dopaminergic neurons. The midbrains were dissociated by […] for 20 minutes (min) at 37° C. (Trypsin EDTA 1×; PanBiotech, Ref: P10-023100, Batch: 8290223). The reaction was stopped by the addition of Dulbecco's modified Eagles medium (DMEM; PanBiotech, Ref: P04-03600, Batch: 6041222) containing Dnase | grade II (0.1 mg/ml; PanBiotech, Ref: P60-37780100, Batch: H210916) and 10% of fetal calf serum (FCS; Invitrogen, Ref: 10270106, Batch: 2534381). Cells were then mechanically dissociated by 3 passages through a 10 mL pipette. Cells were then centrifuged at 180×g for 10 min at +4° C. on a layer of BSA (3.5%) in L15 medium. The supernatant was discarded and the cell pellets were resuspended in a defined culture medium consisting of Neurobasal Plus (Gibco, Ref: A3582901, Batch: 2537248) supplemented with 2% of B27 Plus (Gibco, ref: A3582801, Batch: 2722550), L-glutamine (2 mM; PanBiotech, Ref: P04-80100, Batch: 7061121), 2% of PS, 10 ng/ml of BDNF PeproTech, Ref: 450-02, Batch: 092361) and 1 ng/ml of Glial Derived Neurotrophic factor (GDNF; PeproTech, Ref: 450-10, Batch: 012364). Viable cells were then counted in a Neubauer cytometer using the trypan blue exclusion test. The cells were seeded at a density of 40 000 cells/well in 96 well-plates coated with poly-L-Ornithine (Sigma, Ref: P4957, Batch: RNBL6953) and laminin (Sigma, Ref: L2020, Batch: 0000216258), and were cultured at 37° C. in a humidified air (95%)/CO2 (5%) atmosphere. Half of the medium was changed every 2 days with fresh medium. In these conditions, after 5 days of culture, astrocytes are present in the culture and release growth factor allowing neurons differentiation. In this condition, 2 to 5% of neurons are dopaminergic neurons.\n(§3) Briefly, 6-OHDA (Sigma, Ref: H4381, Batch: MKCQ5002) was reconstituted in define culture medium at 40 μM (stock solution). The control medium was prepared in the same conditions. After 7 days of culture, primary mesencephalic neurons were pre-treated for 1 hour with test compounds or reference compound (BDNF, 50 ng/ml) and then intoxicated with 6-OHDA at a final concentration of 20 μM for 2 days incubation in order to induce a neuronal cell death of about 40%. The following conditions were done:\n(§4) After 2 days of intoxication, cells were fixed by a solution of 4% paraformaldehyde (Alpha Aesar, ref J19943, Batch: 211457) for 20 min at room temperature, the control conditions were fixed as well following the same procedure. The cells were then permeabilized and non-specific sites were blocked with a solution of phosphate buffered saline (PBS; VWR; ref: L0615-500, Batch: MS01 MB) containing 0.1% of saponin (Sigma; ref: S7900, Batch: BCBL8667V) and 1% FCS for 15 min at room temperature. Cells were incubated with a rabbit polyclonal anti-Tyrosine Hydroxylase antibody (TH, 1/1000, Sigma, ref: AB152, Batch: 3870479) in a solution of PBS overnight at 4° C.\n(§5) Nuclei of cells were labelled by a fluorescent marker (Hoechst, Sigma; ref: B1155, Batch: 046M4048V) in the same solution.\n(§6) For each condition, 20 pictures per well were taken using InCell Analyzer™ 2200 (GE Healthcare) with 20× magnification. Images of each culture well were taken in same condition."}, "[2]": {"test_system": "rat primary dopaminergic neurons", "assay": "Example 2: 6-OHDA injury, protective protocol, length of TH positive neurites", "settings": "for neurites loss (decrease of neurites length): 6-OHDA 20 μM, 48 hours; for neurites loss / protection of neurites from damages induced by 6-OHDA: one-hour pre-treatment, 6-OHDA 48 hours; for neurites loss: Plate 1, not significant; for protection of neurites from damages induced by 6-OHDA: compound alone, conclusion; for neurites length: p<0.05", "method": "as §1, §2, §3, §4, §5, §6"}, "[3]": {"test_system": "rat primary dopaminergic neurons", "assay": "Example 1: 6OH-DA injury on rat primary mesencephalic culture, number of TH positive dopaminergic neurons (survival/viability)", "settings": "FIG. 1"}, "[4]": {"test_system": "rat primary dopaminergic neurons", "assay": "Example 1: 6OH-DA injury on rat primary mesencephalic culture, neurite length (fitness) of dopaminergic neurons", "settings": "compound alone; as compared to Brain Derived Neurotrophic Factor; FIG. 2", "text": "In these conditions, after 5 days of culture, astrocytes are present in the culture and release growth factor allowing neurons differentiation."}}, "data": [{"molecule": "NCCc1cc(O)c(O)cc1O", "note": "[6-OHDA, 6-hydroxydopamine]", "values": [{"measurement": "cellular death (decrease of dopaminergic neurons survival)", "setting": "[1]; 20 μM, Plate 2, FIG. 7, p<0.0001", "result": 55, "unit": "%"}, {"measurement": "cellular death (decrease of dopaminergic neurons survival)", "setting": "[1]; 6-OHDA 20 μM, Plate 1, FIG. 6, p<0.0001", "result": 54, "unit": "%"}, {"measurement": "cellular death (decrease of dopaminergic neurons survival)", "setting": "[1]; 6-OHDA 20 μM, Plate 3, FIG. 8, p<0.001", "result": 46, "unit": "%"}, {"measurement": "neurites loss (decrease of neurites length)", "setting": "[2]; Plate 1, FIG. 9, p<0.001", "result": 54, "unit": "%"}, {"measurement": "neurites loss (decrease of neurites length)", "setting": "[2]; Plate 2, FIG. 10, p<0.0001", "result": 56, "unit": "%"}, {"measurement": "neurites loss (decrease of neurites length)", "setting": "[2]; Plate 3, FIG. 11, p<0.001", "result": 45, "unit": "%"}]}, {"molecule": "CN(C)C(=N)NC(=N)N", "note": "[CXS001, 1,1-dimethylbiguanide]", "values": [{"measurement": "cellular death", "setting": "[1]; compound alone at 1 μM", "result": 43, "unit": "%"}, {"measurement": "cellular death", "setting": "[1]; compound alone at 3 μM", "result": 44, "unit": "%"}, {"measurement": "cellular death", "setting": "[1]; compound alone at 10 μM", "result": 51, "unit": "%"}, {"measurement": "protection of dopaminergic neurons from cell death induced by 6-OHDA", "setting": "[1]", "result": "does not protect"}, {"measurement": "neurites loss", "setting": "[2]; compound alone at 1 μM", "result": 38, "unit": "%"}, {"measurement": "neurites loss", "setting": "[2]; compound alone at 3 μM", "result": 43, "unit": "%"}, {"measurement": "neurites loss", "setting": "[2]; compound alone at 10 μM", "result": 55, "unit": "%"}, {"measurement": "protection of neurites from damages induced by 6-OHDA", "setting": "[2]", "result": "does not protect"}]}, {"molecule": "COc1ccc(Cl)cc1C(=O)NCCc1ccc(S(=O)(=O)NC(=O)NC2CCCCC2)cc1", "note": "[CXS002, Glibenclamide]", "values": [{"measurement": "neuron viability", "setting": "[3]; at high concentration, 6OHDA intoxication", "result": "seems to decrease neuron viability"}, {"measurement": "dopaminergic neuron survival in 6OHDA intoxication", "setting": "[3]; compound alone, as compared to Brain Derived Neurotrophic Factor", "result": "did not improve dopaminergic neuron survival"}, {"measurement": "dopaminergic neuron fitness (neurite length) in 6OHDA intoxication", "setting": "[4]", "result": "did not improve dopaminergic neuron fitness"}, {"measurement": "cellular death", "setting": "[1]; compound alone at 1 μM", "result": 58, "unit": "%"}, {"measurement": "cellular death", "setting": "[1]; compound alone at 3 μM", "result": 57, "unit": "%"}, {"measurement": "cellular death", "setting": "[1]; compound alone at 10 μM", "result": 47, "unit": "%"}, {"measurement": "protection of dopaminergic neurons from cell death induced by 6-OHDA", "setting": "[1]", "result": "does not protect"}, {"measurement": "neurites loss", "setting": "[2]; compound alone at 1 μM", "result": 58, "unit": "%"}, {"measurement": "neurites loss", "setting": "[2]; compound alone at 3 μM", "result": 57, "unit": "%"}, {"measurement": "neurites loss", "setting": "[2]; compound alone at 10 μM", "result": 47, "unit": "%"}, {"measurement": "protection of neurites from damages induced by 6-OHDA", "setting": "[2]", "result": "does not protect"}]}, {"molecule": "B1", "values": [{"measurement": "dopaminergic neurons survival", "setting": "[1]; Plate 1, FIG. 6, p<0.05", "result": "81 % of the control"}, {"measurement": "dopaminergic neurons survival", "setting": "[1]; Plate 2, FIG. 7, p<0.0001", "result": "87 % of the control"}, {"measurement": "dopaminergic neurons survival", "setting": "[1]; Plate 3, FIG. 8, p<0.05", "result": "83 % of the control"}, {"measurement": "neurites length", "setting": "[2]; BDNF 50 ng/mL + 6-OHDA 20 μM 48 hours, Plate 1, FIG. 9", "result": "79 % of the control"}, {"measurement": "neurites length", "setting": "[2]; BDNF 50 ng/ml + 6-OHDA 20 μM 48 hours, Plate 2, FIG. 10", "result": "76 % of the control"}, {"measurement": "neurites length", "setting": "[2]; BDNF 50 ng/ml + 6-OHDA 20 μM 48 hours, Plate 3, FIG. 11", "result": "85 % of the control"}]}]}
